# pIC50: −log10 of the molar value.
# Experiments:
# [1] = target: T1, collagenase (MMP-1) (Homo sapiens, UniProt P03956); test: MMP-1 enzyme inhibition assay (coumarin-labelled peptide substrate); type: biochemical; conditions: fluorogenic substrate McaPLGLDpaAR, 37° C., 2 hours
# T1 sequence (P03956 100-469): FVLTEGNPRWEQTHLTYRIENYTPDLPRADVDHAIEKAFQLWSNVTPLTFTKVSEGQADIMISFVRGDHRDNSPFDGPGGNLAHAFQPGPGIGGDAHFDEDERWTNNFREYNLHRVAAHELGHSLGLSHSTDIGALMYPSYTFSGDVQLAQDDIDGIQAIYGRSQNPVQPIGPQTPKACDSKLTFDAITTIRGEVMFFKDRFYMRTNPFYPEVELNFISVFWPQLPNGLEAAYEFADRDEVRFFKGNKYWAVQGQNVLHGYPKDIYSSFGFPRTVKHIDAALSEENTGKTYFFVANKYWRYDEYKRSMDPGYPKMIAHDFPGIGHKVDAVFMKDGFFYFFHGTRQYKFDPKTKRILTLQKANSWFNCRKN
# Experimental: (§1) Compounds of the invention were tested for inhibitory activity against 92 kDa gelatinase (MMP-9) in an assay using a coumarin-labeled peptide substrate, (7-methoxycoumarin-4-yl)acetyl-Pro-Leu-Gly-Leu-(3-[2,4-dinitrophenyl]-L-2,3-diaminopropionyl)-Ala-Arg-NH2 (McaPLGLDpaAR) (Knight et al, 1992, FEBS Lett., 263-266).
# (§2) Stock solutions were made up as follows: Assay Butter: 100 mM Tris-HCl pH 7.6 containing 100 mM NaCl, 10 mM CaCl2, and 0.05% Brij 35.
# (§3) Substrate: 0.4 mM McaPLGLDpaAR (from Bachem) (0.437 mg/ml) stock solution in 100% DMSO (stored at −20° C.). Dilute to 8 μM in assay butter.
# (§4) Enzyme: Recombinant human 92 kDa gelatinase (MMP-9; APMA (4-aminophenyl mercuric acetate)-activated if necessary) appropriately diluted in assay butter.
# (§5) Test Compounds were prepared initially as 10 mM compound solution in 100% DMSO, diluted to 1 mM in 100% DMSO, then serially diluted 3-fold in 100% DMSO across columns 1-10 of a 96-well microtitre plate Assay concentration range, 100 μM (column 1) to 5.1 nM (column 10).
# (§6) The assay was performed in a total volume of 100 μL per well in 96-well microtitre plates. Activated enzyme (20 μL) was added to the wells followed by 20 μL of assay butter. Appropriate concentrations of test compounds dissolved in 10 μL of DMSO were then added followed by 50 μL of McaPLGLDpaAR ([…], prepared by dilution of DMSO stock in assay butter). For each as say ten concentrations of test compound were examined in duplicate. Control wells lack either enzyme or test compound. The reactions were incubated at 37° C. for 2 hours. The fluorescence at 405 nm was measured immediately with an SLT Fluostar fluorometer (SLT Labinstruments GmbH, Grodig, Austria) using 320 nm excitation, without stopping the reaction.
# (§7) The effect of the test compound was determined from the dose response curve generated by the 10 duplicate concentrations of inhibitor. The IC50 (the concentration of compound required to give a 50% decrease in enzyme activity) was obtained by fitting data to the equation, Y=a+((b−a)/(1+(c/X)^d)). (Y=inhibition achieved for a particular dose; X=the dose in nM; a=minimum y or zero % inhibition; b=maximum y or 100% inhibition; c=is the IC50; d=is the slope). The result was rounded to one significant figure.
# Compounds of the invention were tested for inhibitory activity against collagenase (MMP-1) in an assay using a coumarin-labelled peptide substrate, (7-methoxycoumarin-4-yl)acetyl-Pro-Leu-Gly-Leu-(3-[2,4-dinitrophenyl]-L-2,3diaminopropionyl)-Ala-Arg-NH2 (Mca PLGLDpaAR) (Knight et al, 1992, above). The protocol for this assay was as described for the MMP-9 assay above.
# [2] = target: metalloelastase (MMP-12) (Homo sapiens, UniProt P39900); test: MMP-12 enzyme inhibition assay (coumarin-labelled peptide substrate); type: biochemical; conditions: fluorogenic substrate McaPLGLDpaAR, 37° C., 2 hours
# Experimental: as §1, §2, §3, §4, §5, §6, §7
# Compounds of the invention were tested for inhibitory activity against metalloelastase (MMP-12) in an assay using a coumarin-labelled peptide substrate, (7-methoxycoumarin-4-yl)acetyl-Pro-Leu-Gly-Leu-(3-[2,4dinitrophenyl]-L-2,3-diaminopropionyl)-Ala-Arg-NH2 (McaPLGLDpaAR) (Knight et al, 1992, above). The protocol for this assay was as described for the MMP-9 assay above.
# [3] = tested on: IL-2-induced peritoneal recruitment of lymphocytes; test: IL-2-induced peritoneal recruitment of lymphocytes; type: in vivo, C3H/HEN mice; conditions: mice, 1 mg/kg po, 15 min prior to IL-2; cells collected 24 h after IL-2
# Experimental: Administration of IL-2 intraperitoneally causes migration of lymphocytes into the intraperitoneal cavity. This is a model for the cellular migration that occurs during inflammation.
# C3H/HEN mice (Elevage Janvier, France) are intraperitoneally injected with IL-2 (Serono Pharmaceutical Research Institute, 20 μg/kg, in saline).
# Compounds of the invention are suspended in 0.5% carboxymethylcellulose (CMC)/0.25% tween-20 and are administered by s.c. or p.o. route (10 ml/kg) 15 min prior to administration of IL-2.
# Twenty-four hours after administration of IL-2, peritoneal white blood cells are collected by 3 successive lavages of the peritoneal cavity with 5 ml phosphate buffered saline (PBS)-1 mM EDTA (+4° C.). The suspension is centrifuged (1700 g×10 min at +4° C.). The resulting pellet is suspended in 1 ml PBS-1 mM EDTA.
# Lymphocytes are identified and counted using a Beckman/Coulter counter.
# The animals are divided into 6 groups (6 mice each group):
# Group 1: (baseline) receives 0.5% CMC/0.25% tween-20 (vehicle of compound of the invention) and saline (vehicle of IL-2);
# Group 2: (control IL-2) receives 0.5% CMC/0.25% tween-20 and injection of IL-2;
# Group 3: Experimental group (Compound of the invention Dose 1) receives a compound of the invention and injection of IL-2; […]
# Inhibition of lymphocyte recruitment is calculated as follows: […]
# Chain of metalloelastase (MMP-12) (P39900 106-470): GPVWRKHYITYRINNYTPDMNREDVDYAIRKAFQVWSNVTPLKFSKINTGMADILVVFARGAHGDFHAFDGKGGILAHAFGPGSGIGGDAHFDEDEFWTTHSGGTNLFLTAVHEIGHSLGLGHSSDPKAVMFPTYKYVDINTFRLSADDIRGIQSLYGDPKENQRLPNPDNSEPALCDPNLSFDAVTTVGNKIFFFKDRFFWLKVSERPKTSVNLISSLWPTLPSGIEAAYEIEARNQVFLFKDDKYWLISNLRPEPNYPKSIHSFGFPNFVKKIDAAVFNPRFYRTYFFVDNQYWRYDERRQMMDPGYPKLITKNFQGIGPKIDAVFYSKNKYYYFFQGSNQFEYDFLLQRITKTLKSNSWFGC
smiles,measurement,setting,value
"O=C(NO)[C@H](O)CC(=O)N1CCN(c2ccc(F)cc2)CC1 [Example 1, (2R)-4-[4-(4-fluorophenyl)piperazin-1-yl]-N,2-dihydroxy-4-oxo butanamide]",pIC50,[1],< 5.30
same,pIC50,[2],6.58
"O=C(NO)[C@@H](O)CC(=O)N1CCN(c2ccc(F)cc2)CC1 [Example 2, (2S)-4-[4-(4-fluorophenyl)piperazin-1-yl]-N,2-dihydroxy-4-oxobutanamide]",% inhibition of IL-2-induced peritoneal recruitment of lymphocytes,[3],51%
same,pIC50,[1],< 5.30
same,pIC50,[2],7.24
"C[C@@H]1CN(c2ccc(OC(F)(F)F)cc2)CCN1C(=O)C[C@H](O)C(=O)NO [Example 3, (2S)—N,2-dihydroxy-4-{(2R)-2-methyl-4-[4-(trifluoromethoxy)phenyl]piperazin-1-yl}-4-oxobutanamide]",pIC50,[1],< 5.30
same,pIC50,[2],8.30
"C[C@@H]1CN(c2ccc(-c3ccccc3)cc2)CCN1C(=O)C[C@H](O)C(=O)NO [Example 4, (2S)-4-[(2R)-4-biphenyl-4-yl-2-methylpiperazin-1-yl]-N,2-dihydroxy-4-oxobutanamide]",pIC50,[1],< 5.30
same,pIC50,[2],8.30
